What was measured:
Assay type in all cases: functional
[1] = tested on: MDA-MB-468; assay: Cytotoxicity against human MDA-MB-468 after 48 hrs by SRB assay; details: MDA-MB-468, 48 h
[2] = tested on: BT-549; assay: Cytotoxicity against human BT549 after 48 hrs by SRB assay; details: BT-549, 48 h
[3] = tested on: T47D; assay: Cytotoxicity against human T47D after 48 hrs by SRB assay
[4] = tested on: Hs-578T; assay: Cytotoxicity against human Hs578T after 48 hrs by SRB assay
[5] = tested on: MDA-MB-231; assay: Cytotoxicity against human MDA-MB-231 after 48 hrs by SRB assay; details: MDA-MB-231, 48 h
[6] = tested on: MCF7; assay: Cytotoxicity against human MCF7 after 48 hrs by SRB assay; details: MCF7, 48 h
[7] = tested on: DU-145; assay: Cytotoxicity against human DU145 after 48 hrs by SRB assay; details: DU-145, 48 h
[8] = tested on: PC-3; assay: Cytotoxicity against human PC3 after 48 hrs by SRB assay; details: PC-3, 48 h
[9] = tested on: UO-31; assay: Cytotoxicity against human UO31 after 48 hrs by SRB assay; details: UO-31, 48 h
[10] = tested on: TK-10; assay: Cytotoxicity against human TK10 after 48 hrs by SRB assay; details: TK-10, 48 h
[11] = tested on: SN12C; assay: Cytotoxicity against human SN12C after 48 hrs by SRB assay
[12] = tested on: RXF 393; assay: Cytotoxicity against human RXF393 after 48 hrs by SRB assay; details: RXF 393, 48 h
[13] = tested on: CAKI-1; assay: Cytotoxicity against human CAKI-1 after 48 hrs by SRB assay; details: CAKI-1, 48 h
[14] = tested on: ACHN; assay: Cytotoxicity against human ACHN after 48 hrs by SRB assay
[15] = tested on: A498; assay: Cytotoxicity against human A498 after 48 hrs by SRB assay; details: A498, 48 h
[16] = tested on: 786-0; assay: Cytotoxicity against human 786-0 after 48 hrs by SRB assay; details: 786-0, 48 h
[17] = tested on: SK-OV-3; assay: Cytotoxicity against human SKOV3 after 48 hrs by SRB assay; details: SK-OV-3, 48 h
[18] = tested on: NCI/ADR-RES; assay: Cytotoxicity against human NCI/ADR-RES after 48 hrs by SRB assay
[19] = tested on: OVCAR-8; assay: Cytotoxicity against human OVCAR8 after 48 hrs by SRB assay; details: OVCAR-8, 48 h
[20] = tested on: OVCAR-5; assay: Cytotoxicity against human OVCAR5 after 48 hrs by SRB assay; details: OVCAR-5, 48 h
[21] = tested on: OVCAR-4; assay: Cytotoxicity against human OVCAR4 after 48 hrs by SRB assay; details: OVCAR-4, 48 h
[22] = tested on: OVCAR-3; assay: Cytotoxicity against human OVCAR3 after 48 hrs by SRB assay; details: OVCAR-3, 48 h
[23] = tested on: IGROV-1; assay: Cytotoxicity against human IGROV1 after 48 hrs by SRB assay; details: IGROV-1, 48 h
[24] = tested on: UACC-62; assay: Cytotoxicity against human UACC62 after 48 hrs by SRB assay; details: UACC-62, 48 h
[25] = tested on: UACC-257; assay: Cytotoxicity against human UACC257 after 48 hrs by SRB assay; details: UACC-257, 48 h
[26] = tested on: SK-MEL-5; assay: Cytotoxicity against human SK-MEL-5 after 48 hrs by SRB assay; details: SK-MEL-5, 48 h
[27] = tested on: SK-MEL-28; assay: Cytotoxicity against human SK-MEL-28 after 48 hrs by SRB assay; details: SK-MEL-28, 48 h
[28] = tested on: SK-MEL-2; assay: Cytotoxicity against human SK-MEL-2 after 48 hrs by SRB assay; details: SK-MEL-2, 48 h
[29] = tested on: MDA-MB-435; assay: Cytotoxicity against human MDA-MB-435 after 48 hrs by SRB assay; details: MDA-MB-435, 48 h
[30] = tested on: M14; assay: Cytotoxicity against human M14 after 48 hrs by SRB assay; details: M14, 48 h
[31] = tested on: U-251; assay: Cytotoxicity against human U251 after 48 hrs by SRB assay; details: U-251, 48 h
[32] = tested on: LOX IMVI; assay: Cytotoxicity against human LOXIMVI after 48 hrs by SRB assay
[33] = tested on: Malme-3M; assay: Cytotoxicity against human MALME-3M after 48 hrs by SRB assay
[34] = tested on: SF-539; assay: Cytotoxicity against human SF539 after 48 hrs by SRB assay; details: SF-539, 48 h
[35] = tested on: SNB-19; assay: Cytotoxicity against human SNB19 after 48 hrs by SRB assay; details: SNB-19, 48 h
[36] = tested on: SNB-75; assay: Cytotoxicity against human SNB75 after 48 hrs by SRB assay; details: SNB-75, 48 h
[37] = tested on: SW-620; assay: Cytotoxicity against human SW620 after 48 hrs by SRB assay; details: SW-620, 48 h
[38] = tested on: SF-268; assay: Cytotoxicity against human SF268 after 48 hrs by SRB assay; details: SF-268, 48 h
[39] = tested on: SF-295; assay: Cytotoxicity against human SF295 after 48 hrs by SRB assay; details: SF-295, 48 h
[40] = tested on: HT-29; assay: Cytotoxicity against human HT-29 after 48 hrs by SRB assay; details: HT-29, 48 h
[41] = tested on: KM12; assay: Cytotoxicity against human KM12 after 48 hrs by SRB assay; details: KM12, 48 h
[42] = tested on: HCC 2998; assay: Cytotoxicity against human HCC2998 after 48 hrs by SRB assay; details: HCC 2998, 48 h
[43] = tested on: HCT-116; assay: Cytotoxicity against human HCT116 after 48 hrs by SRB assay; details: HCT-116, 48 h
[44] = tested on: HCT-15; assay: Cytotoxicity against human HCT15 after 48 hrs by SRB assay; details: HCT-15, 48 h
[45] = tested on: NCI-H522; assay: Cytotoxicity against human NCI-H522 after 48 hrs by SRB assay; details: NCI-H522, 48 h
[46] = tested on: COLO 205; assay: Cytotoxicity against human COLO205 after 48 hrs by SRB assay; details: COLO 205, 48 h
[47] = tested on: NCI-H460; assay: Cytotoxicity against human NCI-H460 after 48 hrs by SRB assay; details: NCI-H460, 48 h
[48] = tested on: NCI-H23; assay: Cytotoxicity against human NCI-H23 after 48 hrs by SRB assay; details: NCI-H23, 48 h
[49] = tested on: NCI-H322M; assay: Cytotoxicity against human NCI-H322M after 48 hrs by SRB assay
[50] = tested on: NCI-H226; assay: Cytotoxicity against human NCI-H226 after 48 hrs by SRB assay; details: NCI-H226, 48 h
[51] = tested on: HOP-92; assay: Cytotoxicity against human HOP92 after 48 hrs by SRB assay; details: HOP-92, 48 h
[52] = Cytotoxicity against human EKVX after 48 hrs by SRB assay
[53] = tested on: HOP-62; assay: Cytotoxicity against human HOP62 after 48 hrs by SRB assay; details: HOP-62, 48 h
[54] = tested on: SR; assay: Cytotoxicity against human SR after 48 hrs by SRB assay
[55] = tested on: A549; assay: Cytotoxicity against human A549 after 48 hrs by SRB assay; details: A549, 48 h
[56] = tested on: MOLT-4; assay: Cytotoxicity against human MOLT4 after 48 hrs by SRB assay; details: MOLT-4, 48 h
[57] = Cytotoxicity against human HL-60(TB) after 48 hrs by SRB assay; details: HL-60, 48 h
[58] = read-out: LC50 (the source's name)

## COc1cc(/C=C2\CN(C)CC3=C2Nc2nc(SC)[nH]c(=O)c2C3c2cc(OC)c(OC)c(OC)c2)cc(OC)c1OC (centres undefined)
[1]
  GI50: 2.2 µM
[1]; [58]
  CC50: 38.8 µM
[2]
  GI50: 2.98 µM
[2]; [58]
  CC50: 29.5 µM
[3]
  GI50: 3.69 µM
[3]; [58]
  CC50: > 100 µM
[4]
  GI50: 8.88 µM
[4]; [58]
  CC50: > 100 µM
[5]
  GI50: 3.14 µM
[5]; [58]
  CC50: 50.3 µM
[6]
  GI50: 4.98 µM
[6]; [58]
  CC50: 50 µM
[7]
  GI50: 3.6 µM
[7]; [58]
  CC50: 34.8 µM
[8]
  GI50: 3.63 µM
[8]; [58]
  CC50: > 100 µM
[9]
  GI50: 1.57 µM
[9]; [58]
  CC50: 7.54 µM
[10]
  GI50: 6.07 µM
[10]; [58]
  CC50: 46.9 µM
[11]
  GI50: 2.98 µM
[11]; [58]
  CC50: 78.1 µM
[12]
  GI50: 1.81 µM
[12]; [58]
  CC50: 6.61 µM
[13]
  GI50: 2.15 µM
[13]; [58]
  CC50: 11.9 µM
[14]
  GI50: 1.93 µM
[14]; [58]
  CC50: 6.53 µM
[15]
  GI50: 9.58 µM
[15]; [58]
  CC50: 46.7 µM
[16]
  GI50: 4.01 µM
[16]; [58]
  CC50: 87.3 µM
[17]
  GI50: 3.07 µM
[17]; [58]
  CC50: 51 µM
[18]
  GI50: 3.6 µM
[18]; [58]
  CC50: > 100 µM
[19]
  GI50: 2.89 µM
[19]; [58]
  CC50: > 100 µM
[20]
  GI50: 4.83 µM
[20]; [58]
  CC50: 48.7 µM
[21]
  GI50: 4.99 µM
[21]; [58]
  CC50: 81 µM
[22]
  GI50: 2.64 µM
[22]; [58]
  CC50: 23.4 µM
[23]
  GI50: 3.1 µM
[23]; [58]
  CC50: 85.8 µM
[24]
  GI50: 2.06 µM
[24]; [58]
  CC50: 18.5 µM
[25]
  GI50: 2.24 µM
[25]; [58]
  CC50: 29.1 µM
[26]
  GI50: 2.83 µM
[26]; [58]
  CC50: 34.7 µM
[27]
  GI50: 2.1 µM
[27]; [58]
  CC50: 8.79 µM
[28]
  GI50: 9.92 µM
[28]; [58]
  CC50: > 100 µM
[29]
  GI50: 2.51 µM
[29]; [58]
  CC50: 39.8 µM
[30]
  GI50: 2.98 µM
[30]; [58]
  CC50: 50.9 µM
[31]
  GI50: 1.76 µM
[31]; [58]
  CC50: 9.75 µM
[32]
  GI50: 1.66 µM
[32]; [58]
  CC50: 9.37 µM
[33]
  GI50: 2.82 µM
[33]; [58]
  CC50: 55.5 µM
[34]
  GI50: 3.64 µM
[34]; [58]
  CC50: > 100 µM
[35]
  GI50: 8.65 µM
[35]; [58]
  CC50: 50 µM
[36]
  GI50: 7.36 µM
[36]; [58]
  CC50: 57.8 µM
[37]
  GI50: 2 µM
[37]; [58]
  CC50: 9.69 µM
[38]
  GI50: 1.66 µM
[38]; [58]
  CC50: 6.96 µM
[39]
  GI50: 2.24 µM
[39]; [58]
  CC50: 26.9 µM
[40]
  GI50: 2.35 µM
[40]; [58]
  CC50: 16.3 µM
[41]
  GI50: 1.7 µM
[41]; [58]
  CC50: 6.08 µM
[42]
  GI50: 1.91 µM
[42]; [58]
  CC50: 6.9 µM
[43]
  GI50: 1.66 µM
[43]; [58]
  CC50: 6.05 µM
[44]
  GI50: 2.07 µM
[44]; [58]
  CC50: 13.6 µM
[45]
  GI50: 2.04 µM
[45]; [58]
  CC50: 15.5 µM
[46]
  GI50: 2.11 µM
[46]; [58]
  CC50: 12.6 µM
[47]
  GI50: 2.3 µM
[47]; [58]
  CC50: > 100 µM
[48]
  GI50: 3.54 µM
[48]; [58]
  CC50: > 100 µM
[49]
  GI50: 6.6 µM
[49]; [58]
  CC50: 46.1 µM
[50]
  GI50: 6.17 µM
[50]; [58]
  CC50: 60.6 µM
[51]
  GI50: 3.4 µM
[51]; [58]
  CC50: 53.4 µM
[52]
  GI50: 8.44 µM
[52]; [58]
  CC50: > 100 µM
[53]
  GI50: 2.46 µM
[53]; [58]
  CC50: 41.3 µM
[54]
  GI50: 1.48 µM
[54]; [58]
  CC50: > 100 µM
[55]
  GI50: 3.26 µM
[55]; [58]
  CC50: 62.5 µM
[56]
  GI50: 2.92 µM
[56]; [58]
  CC50: > 100 µM
[57]
  GI50: 2.26 µM
[57]; [58]
  CC50: > 100 µM

Reference: ChEMBL document CHEMBL2311467, “Microwave-assisted synthesis of pyrimido[4,5-b][1,6]naphthyridin-4(3H)-ones with potential antitumor activity” (Eur J Med Chem, 2013)
